Reference: patent US7247641B2, “Compounds, derivatives, compositions, preparation and uses” (MGI GP, Inc., priority 2001, dated 2007)

How the values were obtained:
[1] = system: ischemia and reperfusion of the heart in rabbits; conditions: cited from earlier work
[2] = system: MSU crystal induced neutrophil migration in Swiss albino mice; assay: MSU crystal-induced neutrophil recruitment (peritonitis gout model); format: in vivo, mouse; conditions: 6 h
Protocol: Male outbread Swiss albino mice (20-22 g body weight) were purchased from Banton and Kingsman (T. O. strain; Hull, Humberside) and maintained on a standard chow pellet diet with tap water ad libitum and a 12:00 h light/dark cycle. All animals were housed for 1 week prior to experimentation to allow body weight to reach 28-30 g.
1,11b-dihydrobenzopyrano[4,3,2-de ]isoquinolin-1-one was dissolved in 100% DMSO at room temperature at a concentration of 45 mg in 2 ml. The compound was then injected into the peritoneal cavity, so as each mouse received a single dose corresponding to 45 mg/2 ml/kg (e.g. 60 μl for a mouse of 30 g). Control mice received DMSO at 2 ml/kg i.p. A third group of mice which were left untreated were added to control for potential effects of the vehicle. […]
MSU crystal-induced neutrophil recruitment was tested as follows. […] Peritonitis was induced by injection of 3 mg MSU crystals in 0.5 ml PBS (0.1 M, pH 7.4), and the recruitment of neutrophils into the cavity evaluated at the 6 h time point (Getting et al., 1997, J. Pharmacol. Exp. Ther. 283: 123-130). […]
An aliquot (100 μl) of the lavage fluid was then diluted 1:10 in Turk's solution (0.01% crystal violet in 3% acetic acid). The samples were then vortexed and 10 μl of the stained cell solution were placed in a Neubauer haematocymometer and neutrophils numbers counted using a light microscope (Olympus B061). […]

PARP = conditions: read-out: IC50 for inhibiting PARP; reported by Suto et al.; cited from earlier work
[3] = system: focal cerebral ischemia in male Long-Evans rats; assay: Focal cerebral ischemia: right distal MCA cauterization with temporary bilateral CCA occlusion; format: in vivo, rat; conditions: 24 h, mean±SD
Protocol: Focal cerebral ischemia is produced by cauterization of the right distal MCA (middle cerebral artery) with bilateral temporary common carotid artery occlusion in male Long-Evans rats for 90 minutes. All procedures performed on the animals are approved by the University Institutional Animal Care and Use Committee of the University of Pennsylvania. A total of 42 rats (weights: 230-340 g) obtained from Charles River were used in this study. The animals fasted overnight with free access to water prior to the surgical procedure.
Two hours prior to MCA occlusion, varying amounts (control, n=14; 5 mg/kg, n=7; 10 mg/kg, n=7; 20 mg/kg, n=7; and 40 mg/kg, n=7) of the compound, 3,4-dihydro-5-[4-(1-piperidinyl)-butoxy]-1(2H)-isoquinolinone (“DPQ”) were dissolved in dimethyl sulfoxide (DMSO) using a sonicator. A volume of 1.28 ml/kg of the resulting solution was injected intraperitoneally into […].
The rats were then anesthetized with halothane (4% for induction and 0.8%-1.2% for the surgical procedure) in a mixture of 70% nitrous oxide and 30% oxygen. The body temperature was monitored by a rectal probe and maintained at 37.5±0.5° C. with a heating blanket regulated by a homeothermiic blanket control unit (Harvard Apparatus Limited, Kent, U.K.). A catheter (PE-50) was placed into the tail artery, and arterial pressure was continuously monitored and recorded on a Grass polygraph recorder (Model 7D, Grass Instruments, Quincy, Mass.). Samples for blood gas analysis (arterial pH, PaO2 and PaCO2) were also taken from the tail artery catheter and measured with a blood gas analyzer (ABL 30, Radiometer, Copenhagen, Denmark). Arterial blood samples were obtained 30 minutes after MCA occlusion.
The head of the animal was positioned in a stereotaxic frame, and a right parietal incision between the right lateral canthus and the external auditory meatus was made. Using a dental drill constantly cooled with saline, a 3 mm burr hole was prepared over the cortex supplied by the right MCA, 4 mm lateral to the sagittal suture and 5 mm caudal to the coronal suture. The dura mater and a thin inner bone layer were kept, care being taken to position the probe over a tissue area devoid of large blood vessels. The flow probe (tip diameter of 1 mm, fiber separation of 0.25 mm) was lowered to the bottom of the cranial burr hole using a micromanipulator. The probe was held stationary by a probe holder secured to the skull with dental cement. The microvascular blood flow in the right parietal cortex was continuously monitored with a laser Doppler flowmeter (FloLab, Moor, Devon, U.K., and Periflux 4001, Perimed, Stockholm, Sweden). […]

Oc1cccc2c(O)nccc12 [1,5-dihydroxyisoquinoline]
reduction in infarct size ([1]; single injection 1 mg/kg): 38-48%

O=C1N=Cc2cccc3c2C1c1ccccc1O3 (stereo not drawn) [1,11b-dihydrobenzopyrano[4,3,2-de]isoquinolin-1-one]
Neutrophils, mean ± S.E. ([2]; 45 mg/kg i.p. 1 h prior to 3 mg MSU crystals, n=8, vehicle group 6.30 ± 0.33): 2.85 ± 0.34 (8)* 10^6 per mouse | inhibition of cell influx vs. the vehicle group ([2]; 45 mg/kg i.p.): 55%

NC(=O)c1cccc(N)c1 [3-amino-benzamide]
reduction in infarct size in the heart ([1]; single injection 10 mg/kg, one minute before occlusion or before reperfusion): 32-42%

O=C1NCCc2c(OCCCCN3CCCCC3)cccc21 [DPQ, 3,4-dihydro-5-[4-(1-piperidinyl)-butoxy]-1(2H)-isoquinolinone]
IC50 (PARP): 40 nM | damaged volume (infarct volume) ([3]; 5 mg/kg i.p. 2 h before and 2 h after MCA occlusion, control 165.2±34.0): 106.7±23.2 mm^3 | damaged volume (infarct volume) ([3]; 10 mg/kg i.p. 2 h before and 2 h after MCA occlusion, control 165.2±34.0): 76.4±16.8 mm^3 | damaged volume (infarct volume) ([3]; 20 mg/kg i.p. 2 h before and 2 h after MCA occlusion, control 165.2±34.0): 110.2±42.0 mm^3 | damaged volume (infarct volume) ([3]; 40 mg/kg i.p., no significant difference from control 165.2±34.0): 135.6±44.8 mm^3
